Experimental findings from ChEMBL document CHEMBL5346978, “Exploration of Tetrahydroisoquinoline- and Benzo[c]azepine-Based Sphingosine 1-Phosphate Receptor 1 Agonists for the Treatment of Multiple Sclerosis” (J Med Chem, 2023) are described below.

Data set [1] is described as follows: Microsomal stability in human liver microsomes assessed as parent compound remaining preincubated for 5 mins followed by NADPH addition measured after 30 mins by LC-MS/MS analysis. It counts as ADME, Microsome. The settings on record: time 35 min, read-out: Stability.
Data set [2] can be described thus: Microsomal stability in rat liver microsomes assessed as parent compound remaining preincubated for 5 mins followed by NADPH addition measured after 30 mins by LC-MS/MS analysis. Type of data set: ADME, Microsome. The settings on record: time 35 min, read-out: Stability.
Data set [3] deals with T1, Sphingosine 1-phosphate receptor 1 (Homo sapiens, UniProt P21453). Briefly: Agonist activity at S1P1 (unknown origin) expressed in human HEK293/Galpha15 cells assessed as Ca2+ activation at 1 uM measured for 2 hrs by FLIPR analysis relative to control. It counts as functional, cell-based.
The nature of data set [4]: Microsomal stability in mouse liver microsomes assessed as parent compound remaining preincubated for 5 mins followed by NADPH addition measured after 30 mins by LC-MS/MS analysis. It counts as ADME, Microsome. The following applies: time 35 min, read-out: Stability.
For data set [5], the target named is T1, Sphingosine 1-phosphate receptor 1. Briefly: Agonist activity at S1P1 (unknown origin) expressed in PathHunter CHO-K1 EDG1 beta-arrestin cells assessed as beta-arrestin2 recruitment at 1 uM incubated for 90 mins by chemiluminescence based assay relative to control. It counts as functional, cell-based. The following applies: filed as agonist.
For data set [6] the target is unchanged. Kind of data set: Agonist activity at S1P1 (unknown origin) expressed in PathHunter CHO-K1 EDG1 beta-arrestin cells assessed as beta-arrestin2 recruitment incubated for 90 mins by chemiluminescence based assay. It counts as functional, cell-based.
The target is the same in data set [7]. Kind of data set: Agonist activity at S1P1 (unknown origin) expressed in human HEK293/Galpha15 cells assessed as Ca2+ activation measured for 2 hrs by FLIPR analysis. Type of data set: functional, cell-based.
Data set [8] has as its target T2, CYP1A2 (Homo sapiens, UniProt P05177).
T2 sequence (P05177 whole entry): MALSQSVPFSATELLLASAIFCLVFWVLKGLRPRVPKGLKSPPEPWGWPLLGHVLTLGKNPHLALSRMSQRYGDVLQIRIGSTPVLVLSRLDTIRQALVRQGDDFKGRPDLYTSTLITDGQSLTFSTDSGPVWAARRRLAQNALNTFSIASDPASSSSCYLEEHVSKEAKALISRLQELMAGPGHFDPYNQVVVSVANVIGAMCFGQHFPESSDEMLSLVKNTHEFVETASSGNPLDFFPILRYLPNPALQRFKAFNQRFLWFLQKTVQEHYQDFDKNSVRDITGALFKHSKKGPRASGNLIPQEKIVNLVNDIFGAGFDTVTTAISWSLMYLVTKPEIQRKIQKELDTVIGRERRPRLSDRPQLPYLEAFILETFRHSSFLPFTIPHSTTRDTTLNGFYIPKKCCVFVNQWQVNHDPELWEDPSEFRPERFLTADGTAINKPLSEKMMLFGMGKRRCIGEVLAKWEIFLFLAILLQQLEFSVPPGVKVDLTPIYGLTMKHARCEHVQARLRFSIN
Kind of data set: Inhibition of CYP1A2 in human liver microsomes using phenacetin as substrate assessed as residual activity at 10 uM preincubated for 5 mins followed by substrate addition and measured after 15 mins in presence of NADPH by LC-MS/MS analysis. Type of data set: ADME, Microsome. The following applies: probe phenacetin, time 20 min, read-out: Activity.

Data set [9] can be described thus: Microsomal stability in human liver microsomes assessed as parent compound remaining preincubated for 5 mins followed by NADPH addition measured after 60 mins by LC-MS/MS analysis. The following applies: time 65 min, read-out: Stability. Type of data set: ADME, Microsome.
Data set [10] addresses CYP2C9 (Homo sapiens, UniProt P11712). Kind of data set: Inhibition of CYP2C9 in human liver microsomes using diclofenac as substrate assessed as residual activity at 10 uM preincubated for 5 mins followed by substrate addition and measured after 15 mins in presence of NADPH by LC-MS/MS analysis. It counts as ADME, Microsome. The settings on record: probe diclofenac, time 20 min, read-out: Activity.

Data set [11] concerns the target CYP2D6 (Homo sapiens, UniProt P10635). Briefly: Inhibition of CYP2D6 in human liver microsomes using dextromethorphan as substrate assessed as residual activity at 10 uM preincubated for 5 mins followed by substrate addition and measured after 15 mins in presence of NADPH by LC-MS/MS analysis. It counts as ADME, Microsome. The settings on record: probe dextromethorphan, time 20 min, read-out: Activity.

A short description of data set [12]: Microsomal stability in rat liver microsomes assessed as parent compound remaining preincubated for 5 mins followed by NADPH addition measured after 60 mins by LC-MS/MS analysis. Type of data set: ADME, Microsome. The following applies: time 65 min, read-out: Stability.
Data set [13] addresses CYP3A4 (Homo sapiens, UniProt P08684). Briefly: Inhibition of CYP3A4 in human liver microsomes using midazolam as substrate assessed as residual activity at 10 uM preincubated for 5 mins followed by substrate addition and measured after 15 mins in presence of NADPH by LC-MS/MS analysis. Type of data set: ADME, Microsome. The following applies: probe midazolam, time 20 min, read-out: Activity.

Data set [14] can be described thus: Microsomal stability in mouse liver microsomes assessed as parent compound remaining preincubated for 5 mins followed by NADPH addition measured after 60 mins by LC-MS/MS analysis. Type of data set: ADME, Microsome. The settings on record: time 65 min, read-out: Stability.

Molecules are shown by their SMILES.

CYP2D6, sequence (P10635 whole entry): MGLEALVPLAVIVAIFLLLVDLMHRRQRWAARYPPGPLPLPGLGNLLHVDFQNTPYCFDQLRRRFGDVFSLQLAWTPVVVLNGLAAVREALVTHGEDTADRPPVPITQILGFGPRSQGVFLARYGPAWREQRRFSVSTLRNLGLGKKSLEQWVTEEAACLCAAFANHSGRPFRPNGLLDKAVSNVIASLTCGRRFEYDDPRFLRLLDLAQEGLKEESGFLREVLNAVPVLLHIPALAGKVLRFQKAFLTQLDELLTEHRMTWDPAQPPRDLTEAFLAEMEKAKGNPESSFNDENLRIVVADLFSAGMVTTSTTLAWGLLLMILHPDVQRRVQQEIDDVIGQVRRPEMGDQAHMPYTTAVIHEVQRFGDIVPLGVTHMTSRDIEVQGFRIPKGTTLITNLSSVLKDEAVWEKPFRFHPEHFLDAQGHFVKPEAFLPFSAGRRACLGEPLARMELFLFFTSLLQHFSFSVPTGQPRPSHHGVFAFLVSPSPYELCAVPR
T1 sequence (P21453 whole entry): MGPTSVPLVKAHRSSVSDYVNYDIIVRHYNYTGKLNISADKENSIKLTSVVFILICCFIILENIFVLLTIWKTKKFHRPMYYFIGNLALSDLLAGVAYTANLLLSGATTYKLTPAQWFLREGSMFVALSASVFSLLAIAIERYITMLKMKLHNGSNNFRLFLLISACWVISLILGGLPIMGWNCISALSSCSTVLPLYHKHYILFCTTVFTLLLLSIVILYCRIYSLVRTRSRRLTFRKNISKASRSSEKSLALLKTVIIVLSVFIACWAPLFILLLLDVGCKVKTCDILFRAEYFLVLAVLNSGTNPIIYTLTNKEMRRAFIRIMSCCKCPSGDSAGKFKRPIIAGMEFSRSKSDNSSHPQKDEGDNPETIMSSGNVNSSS
CYP2C9, sequence (P11712 whole entry): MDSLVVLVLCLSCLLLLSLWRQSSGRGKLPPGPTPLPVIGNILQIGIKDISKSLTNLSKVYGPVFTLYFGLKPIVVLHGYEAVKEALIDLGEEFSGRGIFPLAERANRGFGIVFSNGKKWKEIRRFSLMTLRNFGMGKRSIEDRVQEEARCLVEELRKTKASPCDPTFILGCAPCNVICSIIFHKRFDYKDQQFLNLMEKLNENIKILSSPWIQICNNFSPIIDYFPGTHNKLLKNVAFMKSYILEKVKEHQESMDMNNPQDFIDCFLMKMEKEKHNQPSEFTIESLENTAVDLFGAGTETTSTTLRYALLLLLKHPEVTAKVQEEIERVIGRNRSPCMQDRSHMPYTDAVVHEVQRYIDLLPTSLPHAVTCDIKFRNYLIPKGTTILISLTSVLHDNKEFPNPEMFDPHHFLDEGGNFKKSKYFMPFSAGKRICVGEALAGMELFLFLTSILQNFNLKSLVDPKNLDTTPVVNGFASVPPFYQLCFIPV
CYP3A4, sequence (P08684 whole entry): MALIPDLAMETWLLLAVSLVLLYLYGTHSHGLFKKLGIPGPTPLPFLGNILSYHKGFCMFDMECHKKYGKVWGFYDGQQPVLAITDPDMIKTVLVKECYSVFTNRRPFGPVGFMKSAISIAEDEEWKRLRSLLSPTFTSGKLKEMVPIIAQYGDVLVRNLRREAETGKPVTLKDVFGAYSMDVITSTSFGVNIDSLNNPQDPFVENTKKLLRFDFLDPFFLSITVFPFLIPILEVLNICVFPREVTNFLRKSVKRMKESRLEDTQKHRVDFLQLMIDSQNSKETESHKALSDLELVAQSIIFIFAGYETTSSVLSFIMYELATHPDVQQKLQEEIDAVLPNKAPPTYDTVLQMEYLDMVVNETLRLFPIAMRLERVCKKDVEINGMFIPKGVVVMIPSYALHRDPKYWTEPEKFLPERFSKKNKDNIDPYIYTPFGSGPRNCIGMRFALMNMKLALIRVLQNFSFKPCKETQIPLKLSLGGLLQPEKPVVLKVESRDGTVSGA

`CNC(=O)CCS(=O)(=O)N1CCc2cc(OCc3ccc(OC(C)C)c(C#N)c3)ccc2C1`: the remaining at 0.5 h in data set [1] is 21.9%; in data set [2] it was 13.4%; in data set [4], 15.8%. Also, the Activity in data set [3] turned out to be 4%; in data set [5] it was 107%. For the same molecule, the EC50 in [6] was determined as 362 nM.
Consider `CC(C)Oc1ccc(COc2ccc3c(c2)CCCN(S(=O)(=O)CC(=O)O)C3)cc1C#N`, for which the results for the EC50 in [7] and in data set [6] were 46.3 nM and 25.3 nM, respectively. In addition, the activity at 0.25 h, 10 µM was found to be 86.9% in data set [8], 86.1% in data set [10], 89.4% in [11] and 87.7% in [13]. Besides, the remaining at 1 h in data set [9] was 90.9%; in [12], 73.6%; in data set [14], 85.1%. Besides, the Activity in [3] (filed as agonist) and in [5] was 94% each time.
`CC(C)Oc1ccc(COc2ccc3c(c2)OCCN(S(=O)(=O)CC(=O)O)C3)cc1C#N`: the EC50 in data set [7] was determined as 67 nM; in data set [6], 50.5 nM. Moreover, the activity at 0.25 h, 10 µM was 88.1% in data set [8], 87% in [10], 91.1% in data set [11] and 84.6% in [13]. Besides, the remaining at 1 h is 97.1% in data set [9], 99.6% in [12] and 87.7% in data set [14]. Besides, the results for the Activity in data set [3] (filed as agonist) and in [5] were 104% and 91%, respectively.
In the case of `CC(C)Oc1ccc(COc2ccc3c(c2)CCN(C(=O)CCNS(C)(=O)=O)C3)cc1C#N`, the remaining at 0.5 h in data set [1] came out at 29.7%; in [2] it was 41.7%; in data set [4], 42.8%. Also, the figures for the Activity in data set [3] and in data set [5] were 23% and 122%, respectively. Also, the EC50 in [6] amounted to 252 nM.
Regarding `CC(C)Oc1ccc(COc2ccc3c(c2)CCN(CCC(=O)O)C3)cc1C#N`, the remaining at 0.5 h came out at 99% in data set [1] and 98.7% in data set [4]. Further, the values for the EC50 in data set [7] and in data set [6] were 247 nM and 193 nM, respectively. Further, the activity at 0.25 h, 10 µM was determined as 85.1% in data set [8], 92.2% in data set [10], 95.4% in data set [11] and 90.2% in [13]. Moreover, the Activity was determined as 82% in data set [3] (filed as agonist) and 98% in data set [5].
Take `CC(C)Oc1ccc(COc2ccc3c(c2)CCN(C(=O)CCC(=O)N(C)C)C3)cc1C#N`: the remaining at 0.5 h was determined as 24.4% in data set [1], 13.9% in data set [2] and 11.4% in [4]. For the same molecule, the results for the Activity in data set [3] and in [5] were 25% and 76%, respectively. The EC50 in data set [6] was found to be 567 nM.
As to `CC(C)Oc1ccc(COc2ccc3c(c2)CCN(S(=O)(=O)CCC(=O)O)C3C)cc1C#N` (stereo not given), the activity at 0.25 h, 10 µM in [8] turned out to be 93.2%; in data set [10] it was 78.4%; in data set [11] it was 87.6%; in data set [13] it was 92%. The values for the remaining at 1 h in data set [9], in [12] and in data set [14] were 100%, 90.8% and 89.7%, respectively. Moreover, the Activity was 8% in data set [3] and 77% in [5]. Moreover, the EC50 in [6] turned out to be 795 nM.
As for `CC(C)Oc1ccc(COc2ccc3c(c2)CCCN(S(=O)(=O)CCO)C3)cc1C#N`, the figures for the EC50 in [7] and in data set [6] were 618 nM and 11.1 nM, respectively. The activity at 0.25 h, 10 µM in data set [8] was 85.1%; in data set [10] it was 53.7%; in data set [11] it was 79.1%; in data set [13] it was 84.7%. Further, the remaining at 1 h is 15.2% in [9], 13.1% in data set [12] and 10.7% in data set [14]. Besides, the Activity in [3] (filed as agonist) amounted to 68%; in [5] it was 116%.
Consider `CC(C)Oc1ccc(COc2ccc3c(n2)CCN(S(=O)(=O)CCC(=O)O)C3)cc1C#N`, for which the remaining at 0.5 h in data set [1] was 96%; in data set [2], 98.1%; in data set [4], 94.2%. For the same molecule, the results for the EC50 in data set [7] and in [6] were 226 nM and 289 nM, respectively. The activity at 0.25 h, 10 µM in [8] turned out to be 84.5%; in data set [10], 80.1%; in data set [11], 85.3%; in data set [13], 85.4%. In addition, the Activity in data set [3] (filed as agonist) and in data set [5] was 82% each time.
Consider `CC(C)Oc1ccc(COc2ccc3c(c2)CCN(S(=O)(=O)CCC(=O)N(C)C)C3)cc1C#N`, for which the remaining at 0.5 h in data set [1] was found to be 18.9%; in data set [2], 18.7%; in [4], 14.1%. Moreover, the Activity in [3] stood at 4%; in [5] it was 98%. The EC50 in [6] was 453 nM.
Regarding `CC(C)Oc1ccc(COc2ccc3c(c2)OCCN(S(=O)(=O)CCC(=O)O)C3)cc1C#N`, the EC50 came out at 68 nM in [7] and 28.6 nM in [6]. Further, the activity at 0.25 h, 10 µM was found to be 71.2% in [8], 70.7% in data set [10], 73.6% in [11] and 68.8% in [13]. Besides, the values for the Activity in data set [3] (filed as agonist) and in [5] were 83% and 109%, respectively. Besides, the remaining at 1 h in data set [12] was 92.9%; in data set [14], 90.5%.
Turning to `CC(C)Oc1ccc(COc2ccc3c(c2)OCCN(S(=O)(=O)CCCO)C3)cc1C#N`, the activity at 0.25 h, 10 µM in data set [8] was determined as 70.2%; in data set [10], 57.2%; in data set [11], 75.6%; in [13] it was 92.7%. Besides, the remaining at 1 h is 17.5% in data set [9], 6.8% in data set [12] and 9.3% in [14]. Besides, the Activity in data set [3] (filed as agonist) was found to be 46%; in data set [5], 92%. In addition, the EC50 in data set [6] was 73.7 nM.
Take `CC(C)Oc1ccc(COc2ccc3c(c2)CCCN(S(=O)(=O)CCCO)C3)cc1C#N`: the EC50 in data set [7] amounted to 502 nM; in [6] it was 94.7 nM. In addition, the activity at 0.25 h, 10 µM in [8] was found to be 100%; in [10], 67.7%; in data set [11] it was 89.4%; in data set [13] it was 82.4%. In addition, the remaining at 1 h in [9] amounted to 16.2%; in [12], 113%; in data set [14], 8.7%. Besides, the Activity in data set [3] (filed as agonist) came to 69%; in [5] it was 81%.
Turning to `CC(C)Oc1ccc(COc2ccc3c(c2)CCN(C(=O)CCC(=O)O)C3)cc1C#N`, the remaining at 0.5 h in data set [1] amounted to 94.3%; in data set [2], 92.1%; in [4], 100%. The EC50 in [7] was determined as 275 nM; in [6], 455 nM. The activity at 0.25 h, 10 µM in data set [8] is 59.7%; in data set [10], 27.6%; in data set [11] it was 54.9%; in data set [13] it was 26.3%. Further, the values for the Activity in data set [3] (filed as agonist) and in [5] were 79% and 81%, respectively.
